Values after ≈ are worked out from the molar mass of the structure shown. Values joined by “and” are separate entries in the source; they are usually repeats but may differ in a detail not shown here. Identical values can stand only once.
Assays:
mouse lymphoma cells = assay: in vitro mouse micronucleus aberration assay (MMA); format: cell-based; details: in vitro
Protocol: (§1) In vitro toxicology. Experiments for assessing micronuclei in mouse lymphoma cells^19 myeloid cytotoxicity^20 and erythroid cytotoxicity^21 were performed as described previously.

[1] = Single dose pharmacokinetics, monkey; format: in vivo; details: plasma, Cynomologus monkey (male)
Protocol: (§2) AZD0914 was analyzed in mouse, rat, dog, monkey plasma using a qualified method which was later validated for human plasma analysis. The validated human method is described below and is representative of the approach taken in other species. AZD0914 was determined in human plasma prepared with K2EDTA as an anticoagulant. AZD0914 and an internal standard (^13C2, ^15N2 AZD0914) were extracted from plasma with tert- butyl methyl ether. After evaporating to dryness under a stream of nitrogen, the residue was reconstituted and quantitated by reverse phase HPLC-MS/MS against a standard curve from 1.00 to 5000 ng/ml. Separation was achieved using a gradient which went from 55% to 85% methanol:acetonitrile (1:1) containing 0.2% formic acid as mobile phase B and 0.2% formic acid in water as mobile phase A at a flow rate of 0.60 ml/min through a Phenomonex Gemini C18 column (50 x 2.0 mm column, […]) heated using a Shimadzu CTO-20AC set to 40 °C. AZD0914 was detected in multiple reaction monitoring (MRM) mode by positive ion electrospray ionization using a Sciex API5500 (Toronto, Canada) mass spectrometer. The ion spray voltage was set to 5500 V and turboionspray temperature was 650 °C. AZD0914 was quantitated using the MRM transition 488.2 → 348.2 using a collision energy of 29 eV. The internal standard, (^13C2, ^15N2 AZD0914), was monitored using identical conditions except for the MRM transition of 492.2 → 348.2.

Dog pharmacokinetics = format: in vivo, Beagle dog
Protocol: as §2

[2] = system: mammalian erythroid cell lines; assay: erythroid cytotoxicity (growth inhibition); format: cell-based; details: read-out: Erythroid IC50
Protocol: as §1

[3] = 28 day oral toxicology study, dog; details: for Salient Pathology Findings: 1 month dog (po)
Mycoplasma pneumoniae = system: Mycoplasma pneumoniae; parameters: method as in ref 3 (supplement); details: 21 tested; ref 3 (supplement); cited from earlier work
Staphylococcus aureus = details: cited from earlier work
[4] = both, beagle, dog, plasma, po, 100 mg/kg/day
[5] = both, beagle, dog, plasma, po, 200 mg/kg/day
[6] = both, beagle, dog, plasma, po, 500 mg/kg/day
[7] = 11640 tested, ref 2 (supplement)

C[C@@H]1CN2c3c(cc4c(N5C(=O)OC[C@@H]5C)noc4c3F)CC3(C(=O)NC(=O)NC3=O)[C@H]2[C@H](C)O1 [ETX0914]
Micronucleus NOEL (mouse lymphoma cells): > 400 µM
clearance ([1]; IV 2.5 mg/kg, read-out: Clp (IV)): 12 mL/min/kg
half-life ([1]; IV 2.5 mg/kg, read-out: T1/2 (IV) (converted)): 1.6 h
Vd ([1]; IV 2.5 mg/kg, read-out: Vss (IV)): 1.3 L/kg
bioavailability ([1]; IV 2.5 / PO 5 mg/kg): 58%
Cmax ([1]; PO 5 mg/kg): 6.5 µM
half-life ([1]; PO 5 mg/kg, read-out: T1/2 (PO) (converted)): 1.6 h
Ka (Dog pharmacokinetics; Beagle dog (male)): 1.2 h⁻¹
Dog F (Dog pharmacokinetics; beagle, dog, plasma): 71%
clearance (Dog pharmacokinetics; beagle, dog, plasma): 4 mL/min/kg
clearance (Dog pharmacokinetics; plasma, Beagle dog (male), IV 2.5 mg/kg, read-out: Clp (IV)): 4 mL/min/kg
half-life (Dog pharmacokinetics; plasma, Beagle dog (male), IV 2.5 mg/kg, read-out: T1/2 (IV) (converted)): 3 h
Vd (Dog pharmacokinetics; plasma, Beagle dog (male), IV 2.5 mg/kg, read-out: Vss (IV)): 0.8 L/kg
bioavailability (Dog pharmacokinetics; plasma, Beagle dog (male), IV 2.5 / PO 5 mg/kg): 71%
Cmax (Dog pharmacokinetics; plasma, Beagle dog (male), PO 5 mg/kg): 7.1 µM
half-life (Dog pharmacokinetics; plasma, Beagle dog (male), PO 5 mg/kg, read-out: T1/2 (PO) (converted)): 3.1 h
IC50 [2]: > 100 µM
Salient Pathology Findings ([3]; 200 mg/kg/day): Testes tubular degeneration partially reversible 3 months post dosing
Salient Pathology Findings ([3]; 500 mg/kg/day): As above plus: Epididymis cellular debris Caecum/illium/rectum necrosis
NOAEL at 28 days ([3]; both, beagle, dog, in vivo, po): 100 mg/kg and 100 mg/kg/day
Cmax ([3]; both, beagle, dog, in vivo, po, 100 mg/kg): 85 µg/mL
AUC [3, 4]: 870 ± 240 µg·h/mL
Cmax [3, 4]: 90 ± 22 µg/mL
AUC [3, 5]: 2160 ± 460 µg·h/mL
Cmax [3, 5]: 210 ± 18 µg/mL
AUC [3, 6]: 2780 ± 1140 µg·h/mL
Cmax [3, 6]: 220 ± 94 µg/mL
haematology or platelet count at the NOAEL ([3]; dog): no significant changes in haematology or platelet count
finding at highest dose tested ([3]; dog, 500 mg/kg/day): tachycardia was observed
tolerated dose ([3]; dog, oral gavage, 28 days): 500 mg/kg/day
MIC90 (Mycoplasma pneumoniae): 1.0^3 µg/ml
MIC Range (Mycoplasma pneumoniae): 0.5 to 1.0 µg/mL
MIC90 (Staphylococcus aureus; [7]): 0.25^2 µg/ml
MIC Range (Staphylococcus aureus; [7]): ≤ 0.008 to 0.5 µg/mL
MIC90, skin infection (S. aureus) (Staphylococcus aureus; Table 2): 0.25 µg/mL (≈ 0.513 µM)

Reference: paper PMC4501059, “Responding to the challenge of untreatable gonorrhea: ETX0914, a first-in-class agent with a distinct mechanism-of-action against bacterial Type II topoisomerases” (Scientific Reports, 2015)
